Experimental data from patent US5296596A, “Hexahydroazepine derivatives, a process for their preparation” (ELF SANOFI, priority 1990, dated 1994).

How the values were obtained:
[1] = molecular target: sigma receptors; assay: Binding in vitro on rat cerebral membranes, ligand 3H-DTG
Text: (§1) These tests have been carried out in vitro on rat cerebral membranes using as ligands either ^3 H-(+)-3 PPP according to Largent et al., J. Phamacol. […] Acad. Sci. USA, 1986, 83, 8784-8788 and in vivo in mice with the ligand ^3 H-3 PPP according to B. Kenneth Koe et al., European J. Pharmacol., 1989, 161, 263-266.

[2] = molecular target: T1, sigma receptors (Rattus norvegicus, UniProt Q9R0C9); assay: biochemical; settings: binding in vitro, ligand (+)-3-PPP, rat cerebral membranes
T1 construct: in vitro on rat cerebral membranes; from tissue; host or cells: rat cerebral membranes
Text: as §1

[3] = molecular target: TCP; assay: Binding in vitro, TCP (thienylcyclohexylpiperidine); settings: ligand TCP
[4] = molecular target: T2, dopaminergic receptor(s) (Rattus norvegicus, UniProt P61169); assay: biochemical; settings: binding in vitro, ligand spiroperidol
T2 construct: from tissue; host or cells: rat brain, probably striatum (inferred from the cited methods)

[5] = system: sigma receptors; assay: In vivo displacement of 3H-(+)-3-PPP at the cerebral level in mice
Text: as §1

[6] = system: hyperactivity induced by d-amphetamine; assay: Antagonism of hyperactivity induced in mice by d-amphetamine; format: in vivo; settings: predictive test for antipsychotic activity
[7] = system: sigma receptors; assay: Sigma receptor activity/selectivity (test not specified); format: binding; settings: from Table I, versus haloperidol

T2 sequence (P61169 whole entry): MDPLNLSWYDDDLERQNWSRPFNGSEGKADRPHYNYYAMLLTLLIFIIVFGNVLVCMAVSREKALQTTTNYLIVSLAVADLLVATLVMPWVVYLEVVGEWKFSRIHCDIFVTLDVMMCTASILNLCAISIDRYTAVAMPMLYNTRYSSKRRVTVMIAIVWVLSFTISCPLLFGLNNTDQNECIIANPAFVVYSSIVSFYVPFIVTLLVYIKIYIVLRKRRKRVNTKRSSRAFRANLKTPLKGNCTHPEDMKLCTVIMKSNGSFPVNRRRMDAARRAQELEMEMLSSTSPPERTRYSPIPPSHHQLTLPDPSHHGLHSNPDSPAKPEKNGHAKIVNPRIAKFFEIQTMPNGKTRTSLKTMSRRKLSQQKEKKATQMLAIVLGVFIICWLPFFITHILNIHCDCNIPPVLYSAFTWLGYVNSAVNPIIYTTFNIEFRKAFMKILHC
T1 sequence (Q9R0C9 whole entry): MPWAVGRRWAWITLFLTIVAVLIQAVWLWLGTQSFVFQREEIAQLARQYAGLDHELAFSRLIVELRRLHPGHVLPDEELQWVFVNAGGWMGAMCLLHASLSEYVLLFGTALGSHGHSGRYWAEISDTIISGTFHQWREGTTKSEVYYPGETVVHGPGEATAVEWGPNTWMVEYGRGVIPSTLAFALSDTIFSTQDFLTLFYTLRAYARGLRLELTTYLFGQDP

Question: Cl.Clc1cc(/C=C\CN2CCCCCC2)ccc1C1CCCCC1 [Example 2, cis-3-(Hexahydroazepin-1-yl)-1-(3-chloro-4-cyclohexylphenyl)-1-propene hydrochloride] was tested. Which IC50 [1] did it give?
Answer: The IC50 was 0.01 µM.

Question: And the IC50 [2]?
Answer: Its IC50 is 0.008 µM.

Question: What about the IC50 [3] of the same compound?
Answer: Its IC50 is > 10 µM.

Question: What about the IC50 [4] of the same compound?
Answer: Its IC50 is 10 µM.

Question: And the “displacement of the ligand (+)-3PPP, at the cerebral level” value [5]?
Answer: The value was “active”.

Question: And the “hyperactivity induced by d-amphetamine” value [6]?
Answer: Its value is “active”.

Question: What about the “sigma impact compared with haloperidol” value [7] of the same compound?
Answer: Its value is “superior and/or more selective sigma impact than that of haloperidol”.
